Data as given in patent publication US8283358B2, “N-sulfonamido polycyclic pyrazolyl compounds” (Elan Pharmaceuticals, Inc., priority 2008, dated 2012).
Like-named read-outs stand apart in the source and are kept apart here.

Molecular target: T1, gamma-secretase (partially purified extract of IMR-32 cell membranes; substrate MBP-C125 Swe fusion protein, cleavage at the Aβ40 site) (Homo sapiens, UniProt P49768)
T1 construct: a partially purified extract of IMR-32 cell membranes as the gamma-secretase enzyme preparation; endogenous in cells; host or cells: IMR-32 cell membranes, partially purified extract
Test: Gamma-secretase APP enzyme assay (Example A)
Format: biochemical
Settings: assay described in Example A
Description: The gamma-secretase APP enzyme assay was designed to measure the specific proteolytic cleavage of an APP substrate (MBP-C125 Swe fusion protein) at the Aβ40 site. […] This assay involved two steps beginning with the enzymatic reaction generating a cleavage product that was captured with an immobilized antibody specific for the neo-epitope Aβ40 site. The captured cleavage product was then detected in a sandwich ELISA assay with a biotinylated reporter antibody that is specific to Aβ(17-28). Streptavidin-linked alkaline phosphatase was then added that would generate a fluorescent signal proportional to the amount of cleavage product.
This warmed solution of BigCHAPS (N,N-Bis(3-D-gluconamidopropyl)cholamide) detergent was used to dissolve Brain Extract Type-V (lipid containing a minimum of 40% phosphatidylethanolamine) from Sigma (St. Louis, Mo.) to a concentration of 8 mg/ml. This solution containing BigCHAPS and lipid at 8 mg/ml is then diluted to 0.53 mg/ml lipid with a pre-warmed solution of Hepes and sodium chloride.
Gamma-secretase was then added to a 96-well micro-titre plate and then incubated with various concentrations of inhibitor for 30 minutes at 37° C. MBPC125 substrate was then added to initiate the reaction that would run for two hours at 37° C. The reaction was quenched with the addition of SDS to a final concentration of 0.1% and then 100 μl of the reaction mixture was transferred to a capture ELISA plate and incubated overnight at 4° C. Detection of the cleavage product was performed using a standard sandwich ELISA assay and quantified using a six point standard curve.

[1] = class symbols, read-out: γAPP IC50

SMILES	IC50 [1] [nM]	also measured
O=S(=O)(c1ccc(C(F)(F)F)nc1)N1C2Cc3[nH]ncc3C1c1cccc(Cl)c12 (stereo not shown) [compound 228]	< 100	
O=S(=O)(c1ccc(C(F)(F)F)nc1)N1C2Cc3[nH]ncc3C1c1cc(F)ccc12 (racemic) [compound 176]	< 100	
O=S(=O)(c1ccc(C(F)(F)F)nc1)N1C2Cc3n[nH]cc3C1c1nc(Br)ccc12 (single isomer, unassigned) [compound 249]	> 1000	
O=S(=O)(c1ccc(C(F)(F)F)cc1)N1C2Cc3[nH]ncc3C1CC(c1ccc(-n3cncn3)cc1)C2 (racemic) [compound 147]	100 to 499	
O=S(=O)(c1ccc(C(F)(F)F)nc1)N1C2c3cn[nH]c3C(F)(F)C1c1cccc(F)c12 (stereo not shown) [compound 166]	< 100	
CC#Cc1ccc2c(c1)[C@@H]1c3cn[nH]c3C[C@@H]2N1S(=O)(=O)c1ccc(C(F)(F)F)nc1 [compound 261]	100 to 499	
O=S(=O)(c1ccc(C(F)(F)F)nc1)N1C2Cc3n[nH]cc3C1c1cccc(F)c12 (single isomer, unassigned) [compound 185]	< 100	
O=S(=O)(c1ccc(C(F)(F)F)cc1)N1C2Cc3n[nH]cc3C1CC(c1cccc(Br)c1)C2 (stereo not shown) [compound 125]	< 100	
O=S(=O)(c1ccc(C(F)(F)F)cc1)N1C2Cc3[nH]ncc3C1C(c1ccc(F)cc1)C2 (stereo not shown) [compound 61]	< 100	
O=S(=O)(c1ccc(C(F)(F)F)nc1)N1C2Cc3n[nH]cc3C1c1nc(-c3ccc(F)cc3)ccc12 (stereo not shown) [compound 254]	100 to 499	
Cc1cc(F)cc2c1C1c3c[nH]nc3CC2N1S(=O)(=O)c1ccc(C(F)(F)F)nc1 (stereo not shown) [compound 158]		IC50 (numeric bounds given instead of class symbols, read-out: γAPP IC50): > 10 nM
O=S(=O)(c1ccc(C(F)(F)F)nc1)N1C2Cc3[nH]ncc3C1c1cc(F)ccc12 (single isomer, unassigned) [compound 180]	< 100	
O=S(=O)(c1ccc(C(F)(F)F)nc1)N1C2Cc3cccc(Br)c3[C@@H]1Cc1n[nH]cc12 [compound 212]	< 100	
O=S(=O)(c1ccc(C(F)(F)F)cn1)N1C2Cc3[nH]ncc3C1c1c(F)cccc12 (racemic) [compound 211]	< 100	
O=C1c2n[nH]cc2C2c3cc(F)c(F)cc3C1N2S(=O)(=O)c1ccc(C(F)(F)F)nc1 (stereo not shown) [compound 148]	< 100	
O=S(=O)(c1ccc(C(F)(F)F)cc1)N1C2Cc3ccccc3C1c1cn[nH]c1C2 (racemic) [compound 164]	< 100	
O=C1c2[nH]ncc2C2c3cccc(F)c3C1N2S(=O)(=O)c1ccc(C(F)(F)F)nc1 (single isomer, unassigned) [compound 193]	500 to 999	
O=S(=O)(c1ccc(C(F)(F)F)cc1)N1C2c3c[nH]nc3C(F)(F)C1c1cccc(F)c12 (stereo not shown) [compound 128]	< 100	
O=C(O)COCCNc1ccc(C2CC3Cc4[nH]ncc4C(C2)N3S(=O)(=O)c2ccc(C(F)(F)F)cc2)cc1 (racemic) [compound 145]	< 100	
Cn1ncc(C2CC3Cc4[nH]ncc4C(C2)N3S(=O)(=O)c2ccc(Cl)cc2)n1 (stereo not shown) [compound 140]	100 to 499	
O=S(=O)(c1ccc(Cl)cc1)N1C2Cc3[nH]ncc3C1CC(c1ccncn1)C2 (stereo not shown) [compound 107]	< 100	
O=S(=O)(c1ccc(C(F)(F)F)cc1)N1C2Cc3[nH]ncc3C1c1cccc(-c3ccc(F)cc3)c1C2 (racemic) [compound 162]	< 100	
O=S(=O)(c1ccc(C(F)(F)F)cc1)N1C2c3cn[nH]c3C(F)C1c1cccc(F)c12 (single isomer, unassigned) [compound 263]	< 100	
O=S(=O)(c1ccc(C(F)(F)F)cc1)N1C2Cc3[nH]ncc3C1CC(c1cccc(-n3ccnc3)c1)C2 (stereo not shown) [compound 132]	< 100	
CO/N=C1\c2[nH]ncc2C2c3cccc(Cl)c3C1N2S(=O)(=O)c1ccc(C(F)(F)F)nc1 (stereo not shown) [compound 269]	< 100	

SMILES	IC50 [1] [nM]	also measured
O=S(=O)(c1ccc(C(F)(F)F)cc1)N1C2Cc3[nH]ncc3C1c1ccc(C(F)(F)F)cc12 (racemic) [compound 156]	< 100	
COC(=O)c1ccc2c(c1)C1c3cn[nH]c3CC2N1S(=O)(=O)c1ccc(C(F)(F)F)nc1 (racemic) [compound 194]	> 1000	
O=S(=O)(c1ccc(C(F)(F)F)cc1)N1C2Cc3[nH]ncc3C1c1ccc3ccccc3c12 (stereo not shown) [compound 168]	< 100	
O=S(=O)(c1ccc(C(F)(F)F)nc1)N1C2c3cn[nH]c3[C@@H](O)C1c1cccc(F)c12 (stereo partly shown) [compound 238]	< 100	
O=S(=O)(c1ccc(C(F)(F)F)cc1)N1C2Cc3[nH]ncc3C1c1cc(F)c(F)cc12 (stereo not shown) [compound 95]	< 100	
O=S(=O)(c1ccc(C(F)(F)F)cc1)N1C2Cc3cccc(F)c3C1Cc1n[nH]cc12 (racemic) [compound 181]	< 100	
O=S(=O)(c1ccc(C(F)(F)F)nc1)N1C2Cc3n[nH]cc3C1c1cccc(F)c12 (single isomer, unassigned) [compound 184]	500 to 999	
O=S(=O)(c1ccc(C(F)(F)F)nc1)N1C2c3c[nH]nc3[C@H](O)C1c1cccc(F)c12 (stereo partly shown) [compound 237]	> 1000	
O=S(=O)(c1ccc(F)cc1)N1C2Cc3[nH]ncc3C1c1c(F)cccc12 (racemic) [compound 210]	< 100	
O=C1CCCN1c1ccc(C2CC3Cc4n[nH]cc4C(C2)N3S(=O)(=O)c2ccc(C(F)(F)F)cc2)cc1 (stereo not shown) [compound 141]	< 100	
O=S(=O)(c1ccc(C(F)(F)F)nc1)N1C2Cc3[nH]ncc3C1c1ccc(Cl)cc12 (single isomer, unassigned) [compound 223]	500 to 999	
O=S(=O)(c1ccc(C(F)(F)F)nc1)N1C2c3c[nH]nc3[C@H](F)C1c1cccc(F)c12 (stereo partly shown) [compound 207]	< 100	
Cc1nc(C2CC3Cc4[nH]ncc4C(C2)N3S(=O)(=O)c2ccc(C(F)(F)F)cc2)n[nH]1 (racemic) [compound 85]	> 1000	
Cn1cc(C2CC3Cc4[nH]ncc4C(C2)N3S(=O)(=O)c2ccc(Cl)cc2)nn1 (single isomer, unassigned) [compound 137]	> 1000	
O=S(=O)(c1ccc(C(F)(F)F)cc1)N1C2Cc3[nH]ncc3C1CC(c1cccc(-n3cccn3)c1)C2 (stereo not shown) [compound 133]	< 100	
O=S(=O)(c1ccc(C(F)(F)F)cc1)N1C2Cc3[nH]ncc3C1CC(c1ccc(-n3cccn3)cc1)C2 (stereo not shown) [compound 124]	< 100	
O=S(=O)(c1ccc(C(F)(F)F)cc1)N1C2Cc3[nH]ncc3C1c1ncccc12 (single isomer, unassigned) [compound 101]	< 100	
N#Cc1ccc2c(c1)C1Cc3n[nH]cc3C2N1S(=O)(=O)c1ccc(C(F)(F)F)nc1 (single isomer, unassigned) [compound 172]	> 1000	
O=C1c2[nH]ncc2C2c3ccccc3C1N2S(=O)(=O)c1ccc(C(F)(F)F)cc1 (stereo not shown) [compound 71]	< 100	
O=C1c2[nH]ncc2C2c3c(F)cccc3C1N2S(=O)(=O)c1ccc(Cl)cc1 (stereo not shown) [compound 243]	100 to 499	
O=S(=O)(c1ccc(C(F)(F)F)nc1)N1C2Cc3[nH]ncc3C1c1cc(C3CC3)ccc12 (single isomer, unassigned) [compound 246]	> 1000	
O=S(=O)(c1ccc(C(F)(F)F)nc1)N1C2Cc3n[nH]cc3C1c1c(F)cccc12 (stereo not shown) [compound 130]		IC50 (γAPP IC50 (nM), class symbols): < 100 nM
COC(=O)CCCNc1ccc(C2CC3Cc4n[nH]cc4C(C2)N3S(=O)(=O)c2ccc(C(F)(F)F)cc2)cc1 (stereo not shown) [compound 142]	< 100	
O=S(=O)(c1ccc(C(F)(F)F)cc1)N1C2Cc3n[nH]cc3C1C(C1CC1)C2 (stereo not shown) [compound 45]	< 100	
